Test results as given in US20260007692A1, “BIORESORBABLE ORGANIC BIOELECTRONICS” (priority 2023, published 2026).

How the values were obtained:
[1] = test system: normal human lung fibroblast (HLF-1) cells; assay: Calcein-AM cytotoxicity assessment in normal lung fibroblast; format: cell-based; settings: 24 hrs
Experimental: Study of the in vitro toxicity of ETE-PC in normal human lung fibroblast (HLF-1) cells. Briefly, HLF-1 cells were seeded in 96 well plate at a density of 2×10^4 cell per well and grown for 24 hrs. Later cells were treated with various concentrations of ETE-PC (5-1000 μg/ml) for 24 hrs. Post treatment, 200 μl live cell staining dye calcein-AM (Thermo Fisher, Invitrogen, Cat no. C3100MP) (2 μM in PR free DMEM) was added to wells and incubated for 30 min followed by examination of live cells using fluorescence cell imaging (Spark Cyto cell imager, Tecan).

[2] = target: T1, horseradish peroxidase (HRP) (Armoracia rusticana, UniProt P00433); assay: Enzymatic polymerization of ETE-PC with HRP and H2O2; format: biochemical; settings: ETE-PC 500 μg/ml, HRP 5 U/ml
T1 construct: purchased Merck, Sigma Aldrich P8375-25KU
T1 sequence (P00433 31-338 limits assumed): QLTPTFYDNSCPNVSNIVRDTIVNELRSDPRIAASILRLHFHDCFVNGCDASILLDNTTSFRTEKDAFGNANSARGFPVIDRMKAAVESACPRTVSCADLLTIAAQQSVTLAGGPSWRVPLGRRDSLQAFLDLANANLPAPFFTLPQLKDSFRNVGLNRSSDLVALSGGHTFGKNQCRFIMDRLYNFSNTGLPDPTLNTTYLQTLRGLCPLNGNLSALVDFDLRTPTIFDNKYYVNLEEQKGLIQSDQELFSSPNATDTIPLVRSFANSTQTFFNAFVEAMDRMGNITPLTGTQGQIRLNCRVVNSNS
Experimental: A solution of ETE-PC (500 μg/ml) was prepared in DPBS (Thermo Fischer, Gibco, Cat no. 14190-250) and mixed with different concentrations of hydrogen peroxide (H2O2) (0.001-0.01%) and horseradish peroxidase (HRP) (Merck, Sigma Aldrich, P8375-25KU) (5 U/ml in DPBS) was added. The polymerization was examined by the change of colour of the ETE-PC solution from slightly yellow to black and taking absorbance at 350 nm and 780 nm to detect polymerized and unpolymerized ETE-PC. The absorbance maxima of polymerized and unpolymerized ETE-PC were determined by a wavelength scan using UV-Vis spectrophotometry by Spark Cyto (Tecan) multi-mode plate reader.

HLF-1 = assay: MTT cell viability assay (limiting-dilution toxicity); format: cell-based, human; settings: 1 day exposure, up to 1 mg mL^−1
Experimental: The MTT cell viability assay was conducted to determine in vitro toxicity of A5, ETE-S and ETE-PC. Briefly, HLF-1 (2×10^4 cells well-1) were plated in a 96-well flat-bottom microplate and grown for 24 h. Cells were treated with A5, ETE-S, or ETE-PC (0-1000 μg ml^−1) for 24 h. Post-treatment, 200 μL of MTT (0.5 mg mL^−1) was added into each well and incubated at 37° C. for 4 h. After incubation, 200 μL of isopropanol was added to dissolve formazan crystals. The optical density of formazan solution, as a measure of live cells, was obtained using a microplate reader at 570 nm (Spark Cyto, Tecan). The formazan signal (live cell count) was normalized to the control samples not exposed to A5 or ETE-Rs. 3 biological and 3 technical replicates were used for each setting. Each well contained up to 200 μg of our compound (1 mg mL^−1, 200 μL) which can be compared to a typical in vivo injection of 400 ng (40 mg mL^−1, 10 nL).

[3] = Oxidation / redox potential of trimers and EDOT monomer; format: physicochemical

H2O2 concentration at which polymerization by HRP got saturated [2] [%]	concentration of H2O2 required for HRP mediated polymerization [2] [%]	oxidation potential [3] [V]	SMILES	morphology in phase contrast images ([1]; 5-1000 μg/ml)	calcein-AM fluorescence vs control ([1]; even at 1000 μg/ml)	cell toxicity (HLF-1)
0.002	0.001	–	C[N+](C)(C)CCOP(=O)([O-])OCCc1cc(-c2scc3c2OCCO3)sc1-c1scc2c1OCCO2 [ETE-PC]	No detrimental change in morphology of HLF-1 cells was observed	no change the calcein-AM fluorescence	neither A5 nor ETE-PC showed cell toxicity
–	–	1.2	c1scc2c1OCCO2 [EDOT, 3,4-ethylenedioxythiophene]	–	–	–
–	–	–	O=S(=O)(O)CCCCOCCc1cc(-c2scc3c2OCCO3)sc1-c1scc2c1OCCO2 [ETE-S, sodium 4-(2-(2,5-bis(2,3-dihydrothieno[3,4-b][1,4]dioxin-5-yl)thiophene-3-yl)ethoxy)butane-1-sulfonate]	–	–	some toxicity at high concentrations
